The target in the experiment is Serine/threonine-protein kinase ATR (Homo sapiens, UniProt Q13535). Description: Inhibition Assay: Compounds were screened for their ability to inhibit ATR kinase using a radioactive-phosphate incorporation assay. Assays were carried out in a mixture of 50 mM Tris/HCl (pH 7.5), 10 mM MgCl2 and 1 mM DTT. Final substrate concentrations were 10 μM [γ-33P]ATP (3mCi 33P ATP/mmol ATP, Perkin Elmer) and 800 μM target peptide ([…]) (SEQ ID NO:1).Assays were carried out at 25° C. in the presence of 5 nM full-length ATR. An assay stock buffer solution was prepared containing all of the reagents listed above, with the exception of ATP and the test compound of interest. 13.5 μL of the stock solution was placed in a 96 well plate followed by addition of 2 μL of DMSO stock containing serial dilutions of the test compound (typically starting from a final concentration of 15 μM with 3-fold serial dilutions) in duplicate (final DMSO concentration 7%). The plate was pre-incubated for 10 minutes at 25° C. and the reaction initiated by addition of 15 μL [γ-33P]ATP (final concentration 10 μM).The reaction was stopped after 24 hours by the addition of 30 μL 0.1M phosphoric acid containing 2 mM ATP. A multiscreen phosphocellulose filter 96-well plate (Millipore, Cat no. MAPHN0B50) was pretreated with 100 μL 0.2M phosphoric acid prior to the addition of […] of the stopped assay mixture. The plate was washed with 5×200 μL 0.2M phosphoric acid. After drying, 100 μL Optiphase ‘SuperMix’ liquid scintillation cocktail (Perkin Elmer) was added to the well prior to scintillation counting (1450 Microbeta Liquid Scintillation Counter, Wallac).
Sequence of Serine/threonine-protein kinase ATR (Q13535 whole entry): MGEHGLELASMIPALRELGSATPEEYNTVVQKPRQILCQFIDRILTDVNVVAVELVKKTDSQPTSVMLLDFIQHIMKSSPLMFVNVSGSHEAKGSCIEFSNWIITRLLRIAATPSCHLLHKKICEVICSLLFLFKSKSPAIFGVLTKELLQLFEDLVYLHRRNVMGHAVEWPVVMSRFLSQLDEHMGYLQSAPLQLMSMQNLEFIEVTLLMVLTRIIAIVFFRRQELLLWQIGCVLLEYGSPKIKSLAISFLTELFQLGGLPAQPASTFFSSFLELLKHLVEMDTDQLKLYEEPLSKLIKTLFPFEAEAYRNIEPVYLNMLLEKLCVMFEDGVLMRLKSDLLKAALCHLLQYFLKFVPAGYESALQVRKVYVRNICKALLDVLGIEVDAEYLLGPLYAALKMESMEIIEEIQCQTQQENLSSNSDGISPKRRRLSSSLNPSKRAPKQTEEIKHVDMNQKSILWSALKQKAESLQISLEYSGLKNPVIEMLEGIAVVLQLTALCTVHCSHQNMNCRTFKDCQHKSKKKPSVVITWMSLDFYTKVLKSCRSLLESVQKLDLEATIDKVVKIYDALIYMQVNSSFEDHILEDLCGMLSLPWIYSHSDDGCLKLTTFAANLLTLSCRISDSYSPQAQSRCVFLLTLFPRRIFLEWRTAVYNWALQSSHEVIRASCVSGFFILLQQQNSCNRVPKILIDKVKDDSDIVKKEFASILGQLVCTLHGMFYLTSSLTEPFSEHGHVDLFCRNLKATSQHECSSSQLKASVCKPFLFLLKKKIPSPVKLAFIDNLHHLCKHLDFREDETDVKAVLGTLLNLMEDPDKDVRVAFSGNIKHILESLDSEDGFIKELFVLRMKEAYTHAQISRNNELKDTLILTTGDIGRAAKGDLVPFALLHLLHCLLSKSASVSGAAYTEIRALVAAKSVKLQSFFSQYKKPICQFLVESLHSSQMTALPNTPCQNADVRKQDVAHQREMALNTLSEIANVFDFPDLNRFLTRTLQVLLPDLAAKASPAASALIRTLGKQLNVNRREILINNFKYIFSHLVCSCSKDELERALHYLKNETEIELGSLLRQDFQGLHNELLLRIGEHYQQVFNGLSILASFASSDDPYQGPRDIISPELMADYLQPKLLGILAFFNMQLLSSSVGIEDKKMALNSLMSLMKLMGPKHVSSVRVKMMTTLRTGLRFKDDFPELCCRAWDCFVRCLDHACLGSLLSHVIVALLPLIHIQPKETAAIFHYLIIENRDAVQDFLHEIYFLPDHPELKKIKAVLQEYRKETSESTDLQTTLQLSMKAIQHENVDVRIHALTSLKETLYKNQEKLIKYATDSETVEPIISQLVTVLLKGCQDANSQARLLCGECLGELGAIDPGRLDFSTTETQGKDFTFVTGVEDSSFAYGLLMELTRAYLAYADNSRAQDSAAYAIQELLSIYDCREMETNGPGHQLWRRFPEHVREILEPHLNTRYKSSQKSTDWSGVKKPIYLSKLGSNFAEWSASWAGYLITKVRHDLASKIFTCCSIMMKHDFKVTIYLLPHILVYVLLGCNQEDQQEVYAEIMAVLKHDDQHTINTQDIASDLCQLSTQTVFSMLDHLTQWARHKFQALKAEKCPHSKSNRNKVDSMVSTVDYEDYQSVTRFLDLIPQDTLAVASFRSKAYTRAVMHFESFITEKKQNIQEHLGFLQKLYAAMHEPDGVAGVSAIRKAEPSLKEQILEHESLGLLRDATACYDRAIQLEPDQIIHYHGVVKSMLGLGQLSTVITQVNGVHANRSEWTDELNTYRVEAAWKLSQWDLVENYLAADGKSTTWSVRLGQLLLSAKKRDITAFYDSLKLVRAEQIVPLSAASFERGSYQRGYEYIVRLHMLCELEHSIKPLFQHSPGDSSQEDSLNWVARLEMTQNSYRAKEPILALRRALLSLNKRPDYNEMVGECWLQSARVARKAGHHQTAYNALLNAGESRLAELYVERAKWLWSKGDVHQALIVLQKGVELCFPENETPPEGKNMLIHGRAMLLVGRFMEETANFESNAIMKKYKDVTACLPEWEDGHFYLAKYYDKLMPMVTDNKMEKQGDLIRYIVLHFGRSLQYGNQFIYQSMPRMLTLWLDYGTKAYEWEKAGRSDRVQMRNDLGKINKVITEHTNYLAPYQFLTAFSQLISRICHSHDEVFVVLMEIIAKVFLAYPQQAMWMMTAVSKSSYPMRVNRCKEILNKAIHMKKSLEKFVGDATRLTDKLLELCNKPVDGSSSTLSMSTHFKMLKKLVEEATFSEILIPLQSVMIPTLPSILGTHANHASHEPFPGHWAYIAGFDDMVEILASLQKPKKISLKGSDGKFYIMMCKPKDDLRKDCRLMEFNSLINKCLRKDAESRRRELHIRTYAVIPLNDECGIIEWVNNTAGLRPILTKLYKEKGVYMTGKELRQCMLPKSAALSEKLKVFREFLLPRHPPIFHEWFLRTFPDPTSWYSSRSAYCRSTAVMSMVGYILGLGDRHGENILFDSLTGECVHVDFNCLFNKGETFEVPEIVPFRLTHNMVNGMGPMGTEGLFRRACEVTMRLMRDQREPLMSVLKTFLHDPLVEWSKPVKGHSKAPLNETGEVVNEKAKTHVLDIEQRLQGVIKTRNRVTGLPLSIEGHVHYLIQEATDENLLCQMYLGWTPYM

As for `CC(=O)N1CCN(c2ccncc2NC(=O)c2c(N)nn3cc(F)cnc23)CC1`, the Ki – broadly, a dissociation constant, usually derived from enzyme kinetics or from competition with a known ligand – lay in the range of 10 to 1000 nM. Next, `Nc1nn2cc(F)cnc2c1C(=O)Nc1cncc(F)c1N1CCC(C(=O)N2CCC(N3CCC3)CC2)CC1`: less than 10 nM; `N#CCc1cnc2c(C(=O)Nc3cnccc3O[C@H]3CCNC3)c(N)nn2c1`: less than 10 nM.

The values are drawn from ChEMBL document CHEMBL5727267, “Compounds useful as inhibitors of ATR kinase” (2019).
